Measurements taken from patent publication US10131670B2, “Bicyclic heteroaryl derivatives as CFTR potentiators” (CYSTIC FIBROSIS FOUNDATION THERAPEUTICS, INC., priority 2016, dated 2018).

How the values were obtained:
[1] = biological target: CFTR (Homo sapiens, UniProt P13569); assay: Ussing Chamber Electrophysiology Assay of CFTR Potentiation in CF Bronchial Epithelial Cells; type: cell-based; details: primary CF hBE cells, short-circuit current, scaled to DMSO (0%) and positive control potentiator (100%)
From the text: Ussing Chamber Electrophysiology Assay of CFTR Potentiation in CF Bronchial Epithelial Cells
Primary cystic fibrosis human bronchial epithelial (CF hBE) cells were expanded and cultured according to published methods (Neuberger et al., Ch. 4 of Cystic Fibrosis, Methods in Molecular Biology vol. 741, pp. 39-54 (2011)). Well-differentiated cells (>30 days at air/liquid interface) on Snapwell filters (Corning Costar, cat. no. 3801) were mounted in Ussing chambers (Physiologic Instruments, Inc., San Diego, Calif.). F508del/F508del cultures were assayed at 27° C. and G551D/F508del cells were assayed at 35° C. HEPES buffered physiological saline (composition (in mM): 137 NaCl, 4 KCl, 1 MgCl2, 1.8 CaCl2, 10 HEPES Na) was used in both apical and basolateral chambers. Chambers were bubbled with air to promote mixing and the voltage was clamped to zero. Amiloride (30 uM), forskolin (10 uM), test compound (4 increasing concentrations), and CFTRinh-172 (20 uM) were added sequentially with 20-25 minutes between additions. Short-circuit currents were acquired and analyzed using LabScribe2. Test compound responses were scaled relative to responses for DMSO (0%) and the maximal response of a positive control potentiator (100%).

[2] = biological target: F508del V470 CFTR (Homo sapiens, UniProt P13569, DEL508-508); assay: FRT Ion Flux Assay of F508del CFTR Potentiation; type: cell-based; details: FRT cells expressing F508del V470 CFTR and halide-sensitive YFP, forskolin 20 uM, 30 min
Chain of F508del V470 CFTR (P13569 with tags, fused parts or gaps DEL508-508): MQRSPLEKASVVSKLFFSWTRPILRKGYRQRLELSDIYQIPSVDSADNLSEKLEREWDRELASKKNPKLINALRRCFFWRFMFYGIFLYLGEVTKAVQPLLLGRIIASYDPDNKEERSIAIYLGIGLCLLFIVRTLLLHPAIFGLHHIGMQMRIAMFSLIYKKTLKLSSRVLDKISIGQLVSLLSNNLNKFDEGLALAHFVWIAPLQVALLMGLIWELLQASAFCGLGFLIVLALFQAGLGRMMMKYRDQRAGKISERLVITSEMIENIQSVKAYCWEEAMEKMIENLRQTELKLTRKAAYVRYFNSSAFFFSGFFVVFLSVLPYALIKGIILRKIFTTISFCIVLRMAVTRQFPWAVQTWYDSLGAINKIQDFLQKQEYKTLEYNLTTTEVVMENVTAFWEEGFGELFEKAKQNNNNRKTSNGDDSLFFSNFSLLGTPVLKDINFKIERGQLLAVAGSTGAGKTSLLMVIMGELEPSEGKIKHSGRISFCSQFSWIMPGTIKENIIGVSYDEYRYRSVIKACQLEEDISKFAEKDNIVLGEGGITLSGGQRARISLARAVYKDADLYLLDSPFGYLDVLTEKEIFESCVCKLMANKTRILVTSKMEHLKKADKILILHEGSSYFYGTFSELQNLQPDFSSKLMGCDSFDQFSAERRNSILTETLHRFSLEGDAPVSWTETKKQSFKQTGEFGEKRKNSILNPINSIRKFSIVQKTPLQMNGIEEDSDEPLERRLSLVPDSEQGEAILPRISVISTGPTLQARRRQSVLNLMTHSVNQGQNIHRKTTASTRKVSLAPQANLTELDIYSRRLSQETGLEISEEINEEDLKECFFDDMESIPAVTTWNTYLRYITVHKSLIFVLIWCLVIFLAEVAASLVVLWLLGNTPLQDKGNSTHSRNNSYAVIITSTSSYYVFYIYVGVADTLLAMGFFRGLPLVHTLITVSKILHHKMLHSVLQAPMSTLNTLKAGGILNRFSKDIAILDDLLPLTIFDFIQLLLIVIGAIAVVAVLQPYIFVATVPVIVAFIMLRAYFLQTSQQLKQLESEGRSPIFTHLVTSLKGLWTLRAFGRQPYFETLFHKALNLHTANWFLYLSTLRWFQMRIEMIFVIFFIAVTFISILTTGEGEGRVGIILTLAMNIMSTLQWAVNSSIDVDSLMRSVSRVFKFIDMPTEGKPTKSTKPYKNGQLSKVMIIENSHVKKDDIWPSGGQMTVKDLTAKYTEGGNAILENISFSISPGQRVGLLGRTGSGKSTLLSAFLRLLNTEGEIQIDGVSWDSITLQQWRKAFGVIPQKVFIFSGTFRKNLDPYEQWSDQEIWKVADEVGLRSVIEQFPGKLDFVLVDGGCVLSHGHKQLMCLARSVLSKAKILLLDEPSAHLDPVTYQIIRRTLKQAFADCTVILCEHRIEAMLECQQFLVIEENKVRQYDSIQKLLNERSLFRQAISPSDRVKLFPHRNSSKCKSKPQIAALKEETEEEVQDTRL
Protocol: FRT Ion Flux Assay of F508del CFTR Potentiation
Fischer rat thyroid (FRT) cell lines stably expressing recombinant F508del V470 CFTR and halide-sensitive yellow fluorescent protein (Pedemonte et al., J. Clin. Invest. 115(9) 2564-71 (2005)) were seeded at 25,000 cells/well in 50 uL/well of culture medium into black-walled, clear bottom tissue-culture-treated 384-well plates (Corning, cat. no. 3712). After one day, the cells were pre-incubated at 27° C./5% CO2 for 16-24 hours. The cells were then washed with dPBS and treated with forskolin (20 uM) and test compound for 30 min by addition of 20 uL of compound dilution buffer (dPBS containing forskolin and test compound). Plates were loaded into FLIPR384 fluorescence imaging plate reader (Molecular Devices). After an initial fluorescence reading, iodide buffer (25 uL) (composition (in mM): 137 NaI, 1.5 K2PO4, 8.1 NaH2PO4, 2.7 KCl, 0.5 MgCl2, 1 CaCl2) was added and a second fluorescence reading was made after approximately 21 seconds. Data treatment involved division of the second fluorescence reading by the initial fluorescence reading, then scaling of the resulting normalized endpoint fluorescence with respect to the responses for DMSO (0%) and a positive control potentiator (100%).

EC50 [1] [nM]	EC50 [2] [nM]	Compound
1.67	3.1	CC(c1cc(-c2ccccc2F)no1)c1c(C#N)c(-c2cnc(C(F)(F)F)nc2)c2c(N)ncnn12 (single isomer, unassigned) [Example 18, 4-amino-7-{1-[3-(2-fluorophenyl)-1,2-oxazol-5-yl]ethyl}-5-[2-(trifluoromethyl)pyrimidin-5-yl]pyrrolo[2,1-f][1,2,4]triazine-6-carbonitrile]
6.96	4.17	CCC(c1cnn(C(C)C)c1)c1c(C#N)c(-c2cnc(C(F)(F)F)nc2)c2c(N)ncnn12 (single isomer, unassigned) [Example 11, 4-amino-7-{1-[1-(propan-2-yl)-1H-pyrazol-4-yl]propyl}-5-[2-(trifluoromethyl)pyrimidin-5-yl]pyrrolo[2,1-f][1,2,4]triazine-6-carbonitrile]
11.2	9.14	CC(c1cn(-c2ccccc2F)nn1)c1c(C#N)c(-c2cnc(C(F)(F)F)nc2)c2c(N)ncnn12 (single isomer, unassigned) [Example 2, 4-amino-7-{1-[1-(2-fluorophenyl)-1H-1,2,3-triazol-4-yl]ethyl}-5-[2-(trifluoromethyl)pyrimidin-5-yl]pyrrolo[2,1-f][1,2,4]triazine-6-carbonitrile]
27.1	23.3	N#Cc1c(-c2cnc(C(F)(F)F)nc2)c2c(N)ncnn2c1Cc1cn(-c2ccccc2F)nn1 [Example 22, 4-amino-7-{[1-(2-fluorophenyl)-1H-1,2,3-triazol-4-yl]methyl}-5-[2-(trifluoromethyl)pyrimidin-5-yl]pyrrolo[2,1-f][1,2,4]triazine-6-carbonitrile]
4	4.65	N#Cc1c(-c2cnc(C(F)(F)F)nc2)c2c(N)ncnn2c1Cc1cc(-c2ccccc2F)no1 [Example 35, 4-amino-7-{[3-(2-fluorophenyl)-1,2-oxazol-5-yl]methyl}-5-[2-(trifluoromethyl)pyrimidin-5-yl]pyrrolo[2,1-f][1,2,4]triazine-6-carbonitrile]
0.2	0.56	CCC(c1cnn(-c2ccccc2F)c1)c1c(C#N)c(-c2cnc(C(F)(F)F)nc2)c2c(N)ncnn12 (single isomer, unassigned) [Example 15, 4-amino-7-{1-[1-(2-fluorophenyl)-1H-pyrazol-4-yl]propyl}-5-[2-(trifluoromethyl)pyrimidin-5-yl]pyrrolo[2,1-f][1,2,4]triazine-6-carbonitrile]
171	76.4	CC(c1cn(-c2ccccc2F)nn1)c1cc(-c2cnc(C(F)(F)F)nc2)c2c(N)ncnn12 (single isomer, unassigned) [Example 53, 7-{1-[1-(2-fluorophenyl)-1H-1,2,3-triazol-4-yl]ethyl}-5-[2-(trifluoromethyl)pyrimidin-5-yl]pyrrolo[2,1-f][1,2,4]triazin-4-amine]
188	349	CCC(c1cn(-c2ccccc2)nn1)n1nc(-c2cnc(C(F)(F)F)nc2)c2c(N)ncnc21 (single isomer, unassigned) [Example 95, 1-[1-(1-phenyl-1H-1,2,3-triazol-4-yl)propyl]-3-[2-(trifluoromethyl)pyrimidin-5-yl]-1H-pyrazolo[3,4-d]pyrimidin-4-amine]

Compound	EC50 [1] [nM]	EC50 [2] [nM]
CCC(c1cn(-c2ccc(F)cc2F)nn1)c1c(C#N)c(-c2cnc(C(F)(F)F)nc2)c2c(N)ncnn12 (single isomer, unassigned) [Example 6, 4-amino-7-{1-[1-(2,4-difluorophenyl)-1H-1,2,3-triazol-4-yl]propyl}-5-[2-(trifluoromethyl)pyrimidin-5-yl]pyrrolo[2,1-f][1,2,4]triazine-6-carbonitrile]	5.48	5.05
CCC(c1cn(-c2ccc(F)cc2F)nn1)c1c(C#N)c(-c2cnc(C(F)(F)F)nc2)c2c(N)ncnn12 (single isomer, unassigned) [Example 7, 4-amino-7-{1-[1-(2,4-difluorophenyl)-1H-1,2,3-triazol-4-yl]propyl}-5-[2-(trifluoromethyl)pyrimidin-5-yl]pyrrolo[2,1-f][1,2,4]triazine-6-carbonitrile]	33.5	45.2
